Experimental data: patent EP0840781B1, “METHODS AND DEVICES FOR THE REMOVAL OF PSORALENS FROM BLOOD PRODUCTS” (Cerus Corporation, priority 1995, dated 1996)
Read-outs that look alike come from different tables or passages of the source.

Tests used:
R17 = assay: r-17 bacteriophage assay: R17 treated with compound and UVA, remaining titer by plaque count on Hfr 3000 bacteria; assay type: cell-based; conditions: for R17 inactivation efficiency compared with AMT: varying concentration (Tables 7 and 8, FIGS. 6-10); for efficiency at inactivating R17 compared with AMT: constant concentration, varying doses of UV light 1.0-3.0 J/cm^2 (FIGS. 11-17)
Method: In the r-17 assay, the bacteriophage was placed in a solution with each compound tested and was then irradiated. The ability of the phage to subsequently infect bacteria and inhibit their growth was measured. The bacteriophage was selected for its relatively accessible nucleic acid such that the culture growth inhibition would accurately reflect nucleic acid damage by the test compounds. The bacteriophage assay for nucleic acid binding to test compounds offers a safe and inexpensive procedure to identify compounds likely to display efficient pathogen inactivation. Previous experiments support that the r-17 assay accurately measures HIV-1 sensitivity to similar compounds. […] Modified Eagles Medium (DMEM) to a final phage concentration of 10^9/mL. An aliquot (0.5 mL) was transferred to a 1.5 mL snap-top polyethylene tube. […] Louis, MO). The tubes were placed in a light device as described in EXAMPLE 1 and irradiated for between 1 and 10 minutes. […] To make the dilutions. a 0.100 mL aliquot of the irradiated solution of phage and test compound was added to the first dilution tube of 0.4 mL of media then 0.020 mL of this solution was added to the second tube of 0.5 mL medium (1:25). […] After the top agar hardened, the plates were incubated at 37 °C overnight. The plaque forming units were then counted the following morning and the titer of the phage remaining after phototreatment was calculated based on the dilution factors. The following controls were run: the "phage only" in which phage was not treated with test compound and not irradiated (listed as "starting titer" in the tables below); the "UV only" in which the phage was irradiated in the absence of test compound; and the "dark" control in which the phage/test compound solution was not irradiated before it was diluted and plated. Compounds described herein were also tested at a constant concentration for varying doses of UV light. […] The compound tested was added at the desired concentration and the samples were vortexed. […] Between each 1.0 J/cm^2 intervals, 100µL was removed from each sample and placed in the first corresponding dilution tube, then five sequential dilutions were performed for each compound tested, at all 3 irradiation doses, as described above in this example. […] The contents of each tube was poured into its own LB plate and the plates were incubated overnight at 37 °C. Plaques were counted by visual inspection the following morning.

HIV-1 = conditions: 1 Minute Irradiation
[1] = tested on: Salmonella typhimurium tester strains TA97a, TA98, TA100, TA102, TA1537 and TA1538
Text: The second property that is important in testing a compound for use in methods described herein is mutagenicity. The most widely used mutagen/carcinogen screening assay is the Ames test. This assay is described by D.M. Maron and B.N. Ames in Mutation Research 113:173 ( 1983) and a specific screen is described in detail in Example 17, below. The Ames test utilizes several unique strains of Salmonella typhimurium that are histidine- dependent for growth and that lack the usual DNA repair enzymes. The frequency of normal mutations that render the bacteria independent of histidine (i.e., the frequency of spontaneous revertants) is low. The test allows one to evaluate the impact of a compound on this revenant frequency.
Because some substances are not mutagenic by themselves, but are converted to a mutagen by metabolic action, the compound to be tested is mixed with the bacteria on agar plates along with the liver extract. The liver extract serves to mimic metabolic action in an animal.
The mixtures are allowed to incubate. Growth of bacteria (if any) is checked by counting colonies.
In this example the compounds described herein are tested for their dark mutagenicity using an Ames assay. The procedures used for the Salmonella mutagenicity test as described in detail by Maron and Ames were followed exactly. Maron, D.M. and B.N. Ames, Mutation Research 113: 173 ( 1983). A brief description for each procedure is given here. The tester strains TA97a, TA98, TA 100, TA102, TA1537 and TA1538 were obtained from Dr. Ames. TA97a, TA98, TA1537 and TA1538 are frameshift tester strains. TA100 and TA102 are base-substitution tester strains. Upon receipt each strain was cultured under a variety of conditions to confirm the genotypes specific to the strains.
The first tests done with the strains were to determine the range of spontaneous reversion for each of the strains. With each mutagenicity experiment the spontaneous reversion of the tester strains to histidine independence was measured and expressed as the number of spontaneous revertants per plate. This served as the background controls.
For all experiments, the pre-incubation procedure was used. In this procedure one vial of each tester strain was thawed and 20 µL of this culture was added to 6 mL of Oxoid Nutrient Broth #2. This solution was allowed to shake for 10 hours at 37°C. In the pre-incubation procedure, 0.1 mL of this overnight culture was added to each of the required number of sterile test tubes. To half of the tubes 0.5 mL of a 10% S-9 solution containing Aroclor 1254 induced rat liver extract (Molecular Toxicology Inc., Annapolis, MD), and MgCl2, KCl, glucose-6-phosphate, NADP, and sodium phosphate buffer (Sigma, St. Louis, Missouri) were added. To the other half of the tubes 0.5 mL of 0.2M sodium phospate buffer, pH 7.4, was used in place of the S-9 mixture (the - S9 samples). Finally 0.1 mL of the test solution containing either 0, 0.1, 0.5, 1, 5, 10, 50, 100, 250, or 500 µg/mL of the test compound was added. The 0.7 mL mixture was vonexed and then pre-incubated while shaking for 20 minutes at 37°C. After shaking, 2 mL of molten top agar supplemented with histidine and biotin were added to the 0.7 mL mixture and immediately poured onto a minimal glucose agar plate (volume of base agar was 20 mL). The top agar was allowed 30 minutes to solidify and then the plates were inverted and incubated for 44 hours at 37°C. After incubation the number of revertant colonies on each plate were counted.
Maron and Ames (1983) describe the conflicting views with regard to the statistical treatment of data generated from the test.

[2] = 16 µM, 1 Minute irradiation = 1.2 J/cm^2, Starting Titer Approx. 7.1 Logs (Table 8)
[3] = 32 µM, HIV Starting Titer Approximately 5 Logs (Table 10)
[4] = 64 µM, HIV Starting Titer Approximately 5 Logs (Table 10)
[5] = two-fold or greater increase in revertants above background and dose dependent response
[6] = 16 µM, HIV Starting Titer Approximately 5 Logs (Table 10)
[7] = 32 µM, 1 Minute irradiation = 1.2 J/cm^2, Starting Titer Approx. 7.1 Logs (Table 8)
[8] = 64 µM, 1 Minute irradiation = 1.2 J/cm^2, Starting Titer Approx. 7.1 Logs (Table 8)
[9] = 16 µM, HIV Starting Titer Approximately 5.4 Logs (Table 11)
[10] = 32 µM, HIV Starting Titer Approximately 5.4 Logs (Table 11)
[11] = 64 µM, HIV Starting Titer Approximately 5.4 Logs (Table 11)

Cc1oc2c(C)c3oc(=O)cc(C)c3cc2c1CCN [Compound 3, 4'-(2-aminoethyl)-4,5',8-trimethylpsoralen]
R17 Log Kill (R17; 8 µM, 1 Minute Irradiation, Starting Titer Approx. 7.2 Logs (Table 7)): >6.2
R17 Log Kill (R17; 8 µM, 1 Minute irradiation = 1.2 J/cm^2, Starting Titer Approx. 7.1 Logs (Table 8)): 5.6
R17 Log Kill (R17; 16 µM, 1 Minute Irradiation, Starting Titer Approx. 7.2 Logs (Table 7)): >6.2
R17 Log Kill (R17; [2]): >6.1
R17 Log Kill (R17; 32 µM, 1 Minute Irradiation, Starting Titer Approx. 7.2 Logs (Table 7)): >6.2
R17 inactivation efficiency compared with AMT (R17): significantly higher inactivation efficiency than does AMT
HIV Log Kill (HIV-1; [3]): 2.7
HIV Log Kill (HIV-1; [4]): >3.8
revertant colonies, TA100 +S9 ([1]; 5 µg/plate): -19
revertant colonies, TA100 -S9 ([1]; 5 µg/plate): 47
revertant colonies, TA1538 +S9 ([1]; 5 µg/plate): 1
revertant colonies, TA1538 -S9 ([1]; 5 µg/plate): 0
revertant colonies, TA100 +S9 ([1]; 10 µg/plate): 8
revertant colonies, TA100 -S9 ([1]; 10 µg/plate): 47
revertant colonies, TA1538 +S9 ([1]; 10 µg/plate): 9
revertant colonies, TA1538 -S9 ([1]; 10 µg/plate): -6
mutagenic response (Ames, summary) [1, 5]: no mutagenicity

OO [hydrogen peroxide, reference compound]
revertant colonies, TA102 -S9 ([1]; Salmonella typhimurium, pH 7.4): 660

Cc1oc2c(C)c3oc(=O)cc(C)c3cc2c1CNCCN [Compound 1, 4'-(4-amino-2-aza)butyl-4,5',8-trimethylpsoralen]
Logs Killed (R17; Experiment 2, compound only (3.2 µM), no uva): 0.1
HIV Log Kill (HIV-1; [4]): 2.1
revertant colonies, TA100 +S9 ([1]; 5 µg/plate): -24
revertant colonies, TA100 -S9 ([1]; 5 µg/plate): 292
revertant colonies, TA1538 +S9 ([1]; 5 µg/plate): 21
revertant colonies, TA1538 -S9 ([1]; 5 µg/plate): 10
revertant colonies, TA100 +S9 ([1]; 10 µg/plate): -22
revertant colonies, TA100 -S9 ([1]; 10 µg/plate): 337
revertant colonies, TA1538 +S9 ([1]; 10 µg/plate): 22
revertant colonies, TA1538 -S9 ([1]; 10 µg/plate): 12
frameshift mutagenicity (Ames, summary) [1, 5]: weak frameshift mutagen in TA1538 at 5 µg/plate in the presence of S9
base-substitution mutagenicity (Ames, summary) ([1]; two-fold or greater increase in revertants above background and dose dependent response, TA100, TA102): displayed mutation in the TA100 strain, but only in the absence of S9

Cc1oc2c(C)c3oc(=O)cc(C)c3cc2c1COCCOCCNCCCCN [Compound 8, 4'-(12-amino-8-aza-2,5-dioxa)dodecyl-4,5',8-trimethylpsoralen]
HIV Log Kill (HIV-1; [6]): 1.1
HIV Log Kill (HIV-1; [3]): 1.9
HIV Log Kill (HIV-1; [4]): 3.7

Cc1cc(=O)oc2c(C)c3oc(CNCCN)c(C)c3cc12 [Compound 16, 5'-(4-amino-2-aza)butyl4,4',8-trimethylpsoralen]
R17 inactivation efficiency compared with AMT (R17): significantly higher inactivation efficiency than does AMT

Cc1oc2c(C)c3oc(=O)cc(C)c3cc2c1CNCCCNCCCCNCCCN [Compound 15, 4'-(14-amino-2,6,11-triaza)tetradecyl-4,5',8-trimethylpsoralen]
efficiency at inactivating R17 compared with AMT (R17): more efficient at inactivating R17 than was AMT

[N-]=[N+]=[N-] [sodium azide, reference compound]
revertant colonies, TA100 -S9 ([1]; 1.5 µg/plate (positive control)): 965
revertant colonies, TA1538 -S9 (Table 18 (A)) ([1]; 1.5 µg/plate (positive control), Table 18 (A), background 126): 965

Cc1oc2c(C)c3oc(=O)cc(C)c3cc2c1COCCCN [Compound 4, 4'-(5-amino-2-oxa)pentyl-4,5',8-trimethylpsoralen]
R17 Log Kill (R17; [2]): 2.3
R17 Log Kill (R17; [7]): 4.3
R17 Log Kill (R17; [8]): >6.1
HIV Log Kill (HIV-1; [3]): 2.2
HIV Log Kill (HIV-1; [4]): >3.6
revertant colonies, TA100 +S9 ([1]; 5 µg/plate): -10
revertant colonies, TA100 -S9 ([1]; 5 µg/plate): -41
revertant colonies, TA1538 +S9 ([1]; 5 µg/plate): 7
revertant colonies, TA1538 -S9 ([1]; 5 µg/plate): -2
revertant colonies, TA100 +S9 ([1]; 10 µg/plate): -3
revertant colonies, TA100 -S9 ([1]; 10 µg/plate): 3
revertant colonies, TA1538 +S9 ([1]; 10 µg/plate): -2
revertant colonies, TA1538 -S9 ([1]; 10 µg/plate): -2
mutagenic response (Ames, summary) [1, 5]: no mutagenicity

Cc1oc2c(C)c3oc(=O)cc(C)c3cc2c1COCCOCCN [Compound 7, 4'-(7-amino-2,5-oxa)heptyl-4.5',8-trimethylpsoralen]
R17 Log Kill (R17; 16 µM, 1 Minute Irradiation, Starting Titer Approx. 7.1 Logs (Table 9)): >6
R17 Log Kill (R17; 32 µM, 1 Minute Irradiation, Starting Titer Approx. 7.1 Logs (Table 9)): >6
R17 Log Kill (R17; 64 µM, 1 Minute Irradiation, Starting Titer Approx. 7.1 Logs (Table 9)): >6
HIV Log Kill (HIV-1; [6]): 0.8
HIV Log Kill (HIV-1; [3]): 2.1
HIV Log Kill (HIV-1; [4]): 3.5

Cc1oc2c(C)c3oc(=O)cc(C)c3cc2c1CNCCCNCCCN [Compound 12, 4'-(9-amino-2,6-diaza)nonyl-4.5',8-trimethylpsoralen]
efficiency at inactivating R17 compared with AMT (R17): more efficient at inactivating R17 than was AMT
HIV Log Kill (HIV-1; [9]): 0.4
HIV Log Kill (HIV-1; [10]): 0.8
HIV Log Kill (HIV-1; [11]): 1.3

Cc1oc2c(C)c3oc(=O)cc(C)c3cc2c1CNCCCN [Compound 5, 4'-(5-amino-2-aza)pentyl4,5',8-trimethylpsoralen]
R17 Log Kill (R17; [2]): 5.6
R17 Log Kill (R17; [7]): >6.1
R17 Log Kill (R17; [8]): >6.1
R17 inactivation efficiency compared with AMT (R17): significantly higher inactivation efficiency than does AMT
HIV Log Kill (HIV-1; [6]): 0.9
HIV Log Kill (HIV-1; [3]): 1.3
HIV Log Kill (HIV-1; [4]): >2.6

Cc1oc2c(C)c3oc(=O)cc(C)c3cc2c1CNCCCOCCCCOCCN [Compound 9, 4'-(13-amino-2-aza-6,11-dioxa)tridecyl-4,5',8-trimethylpsoralen]
HIV Log Kill (HIV-1; [9]): 0.8
HIV Log Kill (HIV-1; [10]): 1.4
HIV Log Kill (HIV-1; [11]): 2.7

Cc1oc2c(C)c3oc(=O)cc(C)c3cc2c1CNCCCCCN [Compound 10, 4'-(7-amino-2-aza)heptyl-4,5',8-trimethylpsoralen]
efficiency at inactivating R17 compared with AMT (R17): more efficient at inactivating R17 than was AMT
HIV Log Kill (HIV-1; [9]): 2.0
HIV Log Kill (HIV-1; [10]): >3.5
HIV Log Kill (HIV-1; [11]): >3.5

Nc1c2ccccc2nc2ccccc12 [9-Amino-acridine, reference compound]
revertant colonies, TA98 -S9 ([1]; 10 µg/plate): 284
revertant colonies, TA1537 -S9 ([1]; 10 µg/plate): 284
